Our source for the IC50 and in-vitro cytotoxic activities values is patent publication EP4778932A1 (priority 2023, dated 2025).

Holding throughout (type): cell-based
One data set concerns MDA-MB-231. The data set is described as follows: cells. Conditions: Homo sapiens, 120 h; MDA-MB-231 cells, five days co-incubation; read-out: IC50 (nM) MDA-MB-231. The protocol:
(§1) MDA-MB-231, OV90, and NCI-N87 cells at defined cell densities (1,500 cells per well, 80 µL volume) were seeded into 96-well plates. The cells were cultured overnight in a constant-temperature incubator (37°C, 5% CO2). Ecteinascidin derivative solutions at a maximum concentration of 2 mM were first prepared in DMSO, and serial 1:4 gradient dilutions were performed. 1 µL of each DMSO-prepared dilution was added to 99 µL of PBS containing 10% FBS per well and mixed thoroughly. The diluted solutions (2 µL of diluted solution and 18 µL of PBS containing 10% FBS per well) were then co-incubated with the cells (37°C, 5% CO2) for five days, after which CellTiter-Glo reagent (40 µL per well) was added, and […] values were measured using an i3x microplate reader.

The test system of another data set is NCI-N87. Kind of data set: cells. Conditions: Homo sapiens, 120 h; NCI-N87 cells, five days co-incubation; read-out: IC50 (nM) NCI-N87. As to the method: as §1
Another data set has as its system OV90. The data set is described as follows: cells. The conditions noted are these: Homo sapiens, OV-90, 120 h; OV90 cells, five days co-incubation; read-out: IC50 (nM) OV90. As to the method:
as §1

Data set [1] deals with MDA-MB-231, OV90, and NCI-N87 cells. The data set is described as follows: Tumor cell proliferation inhibition assay of novel ecteinascidin derivatives, summary over the three cell lines. Conditions: compared with trabectedin and lurbinectedin. The protocol:
as §1, with “The” for “MDA-MB-231, OV90, and NCI-N87 cells at defined cell densities (1,500 cells per well, 80 µL volume) were seeded into 96-well plates. The”

Structures are written as SMILES.

In the case of `COc1cc2c(cc1N)C(C)(C)CN[C@]21CS[C@@H]2c3c(OC(C)=O)c(C)c4c(c3[C@H](COC1=O)N1[C@@H]2[C@H]2c3c(cc(C)c(OC)c3O)C[C@@H]([C@@H]1C#N)N2C)OCO4` [P19], the concentration for half-maximal inhibition (IC50) in the data set on MDA-MB-231, in the data set on NCI-N87 and with OV90 was below 1 nM each time. Besides, the in-vitro cytotoxic activities entry in data set [1] is “superior to or comparable to those of trabectedin and lurbinectedin”.

For `COc1cc2c(cc1N)C(N(C)C)CN[C@]21CS[C@@H]2c3c(OC(C)=O)c(C)c4c(c3[C@H](COC1=O)N1[C@@H]2[C@H]2c3c(cc(C)c(OC)c3O)C[C@@H]([C@@H]1C#N)N2C)OCO4` (some centres unmarked) [P30], the IC50 in the data set on MDA-MB-231, in the data set with NCI-N87 and in the data set on OV90 was below 1 nM in each case. Further, in data set [1], the in-vitro cytotoxic activities result is “superior to or comparable to those of trabectedin and lurbinectedin”.

For the compound `COc1cc2c(cc1N)C1(CC1)CN[C@]21CS[C@@H]2c3c(OC(C)=O)c(C)c4c(c3[C@H](COC1=O)N1[C@@H]2[C@H]2c3c(cc(C)c(OC)c3O)C[C@@H]([C@@H]1C#N)N2C)OCO4` [P36], the half-inhibitory concentration (IC50) in the data set on MDA-MB-231, in the data set with NCI-N87 and in the data set on OV90 was below 1 nM throughout. Besides, the in-vitro cytotoxic activities entry in data set [1] was “superior to or comparable to those of trabectedin and lurbinectedin”.

As to `COc1cc2c(cc1N)C(C)(C)CN[C@]21CS[C@@H]2c3c(OC(C)=O)c(C)c4c(c3[C@H](COC1=O)N1[C@@H]2[C@H]2c3c(cc(C)c(OC)c3O)C[C@@H]([C@@H]1O)N2C)OCO4` [P52], the half-inhibitory concentration (IC50) in the data set with MDA-MB-231, in the data set with NCI-N87 and in the data set with OV90 was below 1 nM throughout. Moreover, the in-vitro cytotoxic activities result in data set [1] is “superior to or comparable to those of trabectedin and lurbinectedin”.

As to `COc1cc2c(cc1NC(=O)C(O)C1CC1)CCN[C@]21CS[C@@H]2c3c(OC(C)=O)c(C)c4c(c3[C@H](COC1=O)N1[C@@H]2[C@H]2c3c(cc(C)c(OC)c3O)C[C@@H]([C@@H]1C#N)N2C)OCO4` (some centres unmarked) [P58], the IC50 in the data set on MDA-MB-231, in the data set on NCI-N87 and in the data set with OV90 was below 1 nM in each case. For the same compound, the in-vitro cytotoxic activities result in data set [1] is “superior to or comparable to those of trabectedin and lurbinectedin”.

For the compound `COc1cc2c(cc1NC(=O)[C@H]1C[C@@H](O)C1)CCN[C@]21CS[C@@H]2c3c(OC(C)=O)c(C)c4c(c3[C@H](COC1=O)N1[C@@H]2[C@H]2c3c(cc(C)c(OC)c3O)C[C@@H]([C@@H]1C#N)N2C)OCO4` [P74], the IC50 in the data set on MDA-MB-231, in the data set with NCI-N87 and in the data set with OV90 was below 1 nM throughout. For the same compound, the in-vitro cytotoxic activities entry in data set [1] was “superior to or comparable to those of trabectedin and lurbinectedin”.

For the compound `COc1cc2c(cc1NC(=O)[C@H]1C[C@H](O)C1)CCN[C@]21CS[C@@H]2c3c(OC(C)=O)c(C)c4c(c3[C@H](COC1=O)N1[C@@H]2[C@H]2c3c(cc(C)c(OC)c3O)C[C@@H]([C@@H]1C#N)N2C)OCO4` [P75], the IC50 with MDA-MB-231, in the data set on NCI-N87 and in the data set on OV90 was below 1 nM throughout. Further, in data set [1], the in-vitro cytotoxic activities entry is “superior to or comparable to those of trabectedin and lurbinectedin”.

Regarding `COc1c(C)cc2c(c1O)[C@@H]1[C@@H]3[C@@H]4SC[C@]5(NCCc6cc(NC(=O)CO)c(F)cc65)C(=O)OC[C@@H](c5c6c(c(C)c(OC(C)=O)c54)OCO6)N3[C@@H](C#N)[C@H](C2)N1C` [P85], the IC50 with MDA-MB-231, in the data set with NCI-N87 and in the data set with OV90 was below 1 nM in each case. Besides, the in-vitro cytotoxic activities result in data set [1] was “superior to or comparable to those of trabectedin and lurbinectedin”.

`COc1cc2c(cc1NC(=O)CO)C(C)(C)CN[C@]21CS[C@@H]2c3c(OC(C)=O)c(C)c4c(c3[C@H](COC1=O)N1[C@@H]2[C@H]2c3c(cc(C)c(OC)c3O)C[C@@H]([C@@H]1C#N)N2C)OCO4` [P96]: the IC50 with MDA-MB-231, with NCI-N87 and in the data set with OV90 was below 1 nM throughout. Also, in data set [1], the in-vitro cytotoxic activities result is “superior to or comparable to those of trabectedin and lurbinectedin”.

With `COc1c(C)cc2c(c1O)[C@@H]1[C@@H]3[C@@H]4SC[C@]5(NCCc6c5ccc(N)c6OC)C(=O)OC[C@@H](c5c6c(c(C)c(OC(C)=O)c54)OCO6)N3[C@@H](C#N)[C@H](C2)N1C` [P166], the IC50 in the data set with MDA-MB-231, in the data set on NCI-N87 and with OV90 was below 1 nM throughout. Further, the in-vitro cytotoxic activities entry in data set [1] is “superior to or comparable to those of trabectedin and lurbinectedin”.

In the case of `COc1c(C)cc2c(c1O)[C@@H]1[C@@H]3[C@@H]4SC[C@]5(NCCc6c5ccc(NC(=O)CO)c6OC)C(=O)OC[C@@H](c5c6c(c(C)c(OC(C)=O)c54)OCO6)N3[C@@H](C#N)[C@H](C2)N1C` [P170], the IC50 with MDA-MB-231, in the data set on NCI-N87 and in the data set on OV90 was below 1 nM throughout. In addition, the in-vitro cytotoxic activities result in data set [1] is “superior to or comparable to those of trabectedin and lurbinectedin”.

With `COc1c(C)cc2c(c1O)[C@@H]1[C@@H]3[C@@H]4SC[C@]5(NCCc6cc(N)c(C)cc65)C(=O)OC[C@@H](c5c6c(c(C)c(OC(C)=O)c54)OCO6)N3[C@@H](C#N)[C@H](C2)N1C` [P172], the IC50 with MDA-MB-231, in the data set with NCI-N87 and in the data set with OV90 was below 1 nM throughout. In data set [1], the in-vitro cytotoxic activities result was “superior to or comparable to those of trabectedin and lurbinectedin”.

Regarding `COc1cc(N)cc2c1[C@@]1(CS[C@@H]3c4c(OC(C)=O)c(C)c5c(c4[C@H](COC1=O)N1[C@@H]3[C@H]3c4c(cc(C)c(OC)c4O)C[C@@H]([C@@H]1C#N)N3C)OCO5)NCC2` [T1], the IC50 in the data set on MDA-MB-231, with NCI-N87 and with OV90 was below 1 nM throughout. Moreover, the in-vitro cytotoxic activities entry in data set [1] was “superior to or comparable to those of trabectedin and lurbinectedin”.

With `COc1c(C)cc2c(c1O)[C@@H]1[C@@H]3[C@@H]4SC[C@]5(NCC(C)(C)c6cc(N)c(F)cc65)C(=O)OC[C@@H](c5c6c(c(C)c(OC(C)=O)c54)OCO6)N3[C@@H](C#N)[C@H](C2)N1C` [T3], the IC50 in the data set on MDA-MB-231, in the data set with NCI-N87 and with OV90 was below 1 nM each time. Also, the in-vitro cytotoxic activities result in data set [1] is “superior to or comparable to those of trabectedin and lurbinectedin”.

As for `COc1c(C)cc2c(c1O)[C@@H]1[C@@H]3[C@@H]4SC[C@]5(NCCc6cc(NC(=O)C7(O)CC7)c(F)cc65)C(=O)OC[C@@H](c5c6c(c(C)c(OC(C)=O)c54)OCO6)N3[C@@H](C#N)[C@H](C2)N1C` [T4], the IC50 in the data set on MDA-MB-231, in the data set on NCI-N87 and in the data set on OV90 was below 1 nM throughout. For the same compound, in data set [1], the in-vitro cytotoxic activities entry was “superior to or comparable to those of trabectedin and lurbinectedin”.

As to `COc1cc2c(cc1N)C(OC)CN[C@]21CS[C@@H]2c3c(OC(C)=O)c(C)c4c(c3[C@H](COC1=O)N1[C@@H]2[C@H]2c3c(cc(C)c(OC)c3O)C[C@@H]([C@@H]1C#N)N2C)OCO4` (some centres unmarked) [T10], the IC50 with MDA-MB-231, in the data set on NCI-N87 and in the data set with OV90 was below 1 nM in each case. Further, the in-vitro cytotoxic activities result in data set [1] is “superior to or comparable to those of trabectedin and lurbinectedin”.

As to `COc1cc2c(cc1N(C)C(=O)CO)CCN[C@]21CS[C@@H]2c3c(OC(C)=O)c(C)c4c(c3[C@H](COC1=O)N1[C@@H]2[C@H]2c3c(cc(C)c(OC)c3O)C[C@@H]([C@@H]1C#N)N2C)OCO4` [T17], the half-inhibitory concentration (IC50) with MDA-MB-231, in the data set with NCI-N87 and in the data set with OV90 was below 1 nM each time. Moreover, the in-vitro cytotoxic activities result in data set [1] was “superior to or comparable to those of trabectedin and lurbinectedin”.

As a reminder, the IC50 is the concentration that gives 50% inhibition.
